Legend:
Adenosylhomocysteinase = Adenosylhomocysteinase (Mus musculus, UniProt P50247); assay: In vitro inhibitory concentration against purified S-Adenosyl-homocysteine hydrolase isolated from murine L929 cells
Trypanosoma brucei [1] = assay: In vitro inhibitory concentration against Trypanosoma brucei rhodesiense strain KETRI 243; format: functional, organism-based
Trypanosoma brucei [2] = assay: In vitro inhibitory concentration against Trypanosoma brucei rhodesiense strain KETRI 269; format: functional, organism-based
Trypanosoma brucei [3] = assay: In vitro inhibitory concentration against Trypanosoma brucei LAB 110 EATRO test strain; format: functional, organism-based
Trypanosoma brucei [4] = assay: In vitro inhibitory concentration against Trypanosoma brucei rhodesiense strain KETRI 243-As-103; format: functional, organism-based

Sequence of Adenosylhomocysteinase (P50247 whole entry): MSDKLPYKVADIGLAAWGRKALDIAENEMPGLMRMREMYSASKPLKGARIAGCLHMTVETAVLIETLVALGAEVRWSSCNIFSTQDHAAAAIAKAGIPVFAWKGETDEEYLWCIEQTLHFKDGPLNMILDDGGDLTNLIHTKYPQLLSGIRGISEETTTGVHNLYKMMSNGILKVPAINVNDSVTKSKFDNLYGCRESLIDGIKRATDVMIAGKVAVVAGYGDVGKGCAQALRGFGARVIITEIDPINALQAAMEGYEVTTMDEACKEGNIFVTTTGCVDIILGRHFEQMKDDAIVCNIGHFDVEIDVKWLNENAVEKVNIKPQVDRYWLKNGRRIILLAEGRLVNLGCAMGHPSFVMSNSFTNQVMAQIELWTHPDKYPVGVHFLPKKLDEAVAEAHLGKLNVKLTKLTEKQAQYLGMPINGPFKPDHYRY

| SMILES | IC50 (Adenosylhomocysteinase) [nM] | IC50 (Trypanosoma brucei [1]) [nM] | IC50 (Trypanosoma brucei [2]) [nM] | IC50 (Trypanosoma brucei [3]) [nM] | IC50 (Trypanosoma brucei [4]) [nM] |
| --- | --- | --- | --- | --- | --- |
| Nc1ncnc2c1ccn2[C@@H]1C[C@H](O)[C@@H](O)[C@H]1O | > 500000 |  |  |  |  |
| Nc1ncnc2c1ccn2[C@H]1C[C@@H](O)[C@H](O)[C@@H]1O | > 500000 | 165 | 165 | 165 | 5300 |

— ChEMBL document CHEMBL1129947, “(+)-7-Deaza-5'-noraristeromycin as an anti-trypanosomal agent” (J Med Chem, 1997)
